Measured values published in patent US20230295152A1 (SENDA BIOSCIENCES, INC., priority 2019, published 2023).

Target: T1, AHR (Homo sapiens, UniProt P35869)
T1 construct: other cell line with a DRE-luciferase reporter stably transfected; endogenous in cells; host or cells: HepG2 AhR-Lucia reporter cells
T1 sequence (P35869 11-848): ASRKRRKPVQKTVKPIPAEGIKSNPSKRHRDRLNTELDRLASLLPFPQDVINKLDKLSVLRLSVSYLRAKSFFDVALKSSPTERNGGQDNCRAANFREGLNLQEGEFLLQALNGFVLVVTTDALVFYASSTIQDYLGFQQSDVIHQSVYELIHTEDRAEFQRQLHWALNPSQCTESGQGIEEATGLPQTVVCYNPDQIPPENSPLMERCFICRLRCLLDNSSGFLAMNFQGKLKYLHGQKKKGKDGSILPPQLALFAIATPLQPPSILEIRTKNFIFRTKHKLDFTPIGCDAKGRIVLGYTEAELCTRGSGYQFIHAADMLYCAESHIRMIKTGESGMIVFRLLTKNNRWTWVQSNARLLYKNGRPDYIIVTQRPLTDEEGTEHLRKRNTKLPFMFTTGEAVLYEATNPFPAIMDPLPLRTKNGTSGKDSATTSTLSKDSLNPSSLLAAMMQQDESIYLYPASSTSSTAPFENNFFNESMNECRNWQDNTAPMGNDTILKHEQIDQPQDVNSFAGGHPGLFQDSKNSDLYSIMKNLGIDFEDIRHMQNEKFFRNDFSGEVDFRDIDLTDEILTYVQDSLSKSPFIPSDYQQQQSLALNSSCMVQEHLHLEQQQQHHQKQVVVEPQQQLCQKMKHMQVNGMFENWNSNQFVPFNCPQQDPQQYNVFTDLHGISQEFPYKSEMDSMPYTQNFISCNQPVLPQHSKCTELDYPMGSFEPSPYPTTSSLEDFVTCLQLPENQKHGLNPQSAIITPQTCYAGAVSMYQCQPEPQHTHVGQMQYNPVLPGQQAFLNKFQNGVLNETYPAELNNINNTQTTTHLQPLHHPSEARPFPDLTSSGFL
Assay: DRE-Luciferase Reporter Assay, HepG2 AhR-Lucia reporter cells
Format: cell-based
Settings: with AHR activating ligand at EC50, read-out: HepG2-Luc IC50
Text: AHR binds to Dioxin Responsive Elements (DRE) upstream of genes that it activates. One measure of AHR activity is activation of a reporter gene, such as luciferase, downstream of one or multiple DRE elements. Luciferase activity will reflect activation and inhibition of AHR in the cells expressing his reporter. 20000 Human HepG2 liver carcinoma—AhR-Lucia reporter cells or Human HT29 colon adenocarcinoma—AhR reporter cells or other cell line with a DRE-luciferase reporter stably transfected were plated in Eagle's Minimal Essential Medium, 10% heat-inactivated FBS, 1× non-essential amino acids Pen-Strep (10,000 U/mL) and Normocin (100 ug/mL) in plates (96-well, 384-well or other plates) and incubated overnight at 37° C. in a CO2 incubator and treated with and without AhR antagonists at a log dilution starting at 100 uM.
After 1 hr that cells were plated an AHR activating ligand, such as TCDD, kynurenine, ITE (2-(1H-indole-3-ylcarbonyl)-4-thiazolecarboxylic methyl ester), VAF347, BNF (beta-naphthoflavone), FICZ (6-formylindolo(3,2-b) carbazole) or other AHR ligands at their specific EC50 concentration, were added to the cells with or without AHR antagonist.
Cells were incubated for 24 or 48 hours or another time point and then, supernatant was analyzed for determination of luciferase activity as a read-out of the AHR activation or inhibition. Luciferase was measured with the commercial kit QUANTI-Luc™ assay solution kit from Invivogen following the manufacturer's instructions.
The level of luciferase with only agonist ligand added was the maximum signal while the luciferase with […] was the minimum signal. IC50 values were determined as the concentration which inhibits half of the luciferase activity.

Row | SMILES | IC50
1 | C[C@@H](CO)n1cnc2c(C3CCCCC3)nc(-c3ccc(C(F)(F)F)cn3)cc2c1=O [Compound 189, (S)-8-cyclohexyl-3-(1-hydroxypropan-2-yl)-6-(5-(trifluoromethyl)pyridin-2-yl)pyrido[3,4-d]pyrimidin-4(3H)-one] | > 500 nM
2 | O=c1c2cc(-c3cnc(C(F)(F)F)s3)nc(-c3cccnc3)c2ncn1[C@H]1COC[C@@H]1O [Compound 169, 3-((3S,4R)-4-hydroxytetrahydrofuran-3-yl)-8-(pyridin-3-yl)-6-(2-(trifluoromethyl)thiazol-5-yl)pyrido[3,4-d]pyrimidin-4(3H)-one] | < 100 nM
3 | C[C@@H](CO)n1cnc2c(-c3cncc(F)c3)nc(-c3cncc(F)c3)cc2c1=O [Compound 78] | 100 to 500 nM
4 | C[C@@H](CO)n1cnc2c(-c3cn[nH]c3)nc(-c3ccc(C(F)(F)F)cn3)cc2c1=O [Compound 191, (S)-3-(1-hydroxypropan-2-yl)-8-(1H-pyrazol-4-yl)-6-(5-(trifluoromethyl)pyridin-2-yl)pyrido[3,4-d]pyrimidin-4(3H)-one] | < 100 nM
5 | Cn1cc(-c2nc(-c3ccc(C(F)(F)F)cn3)cc3c(=O)n(C[C@@H](O)C(F)(F)F)cnc23)cn1 [Compound 146] | < 100 nM
6 | C[C@@H](CO)n1cnc2c(N3CCCC3)nc(-c3ccc(C(F)(F)F)nc3)cc2c1=O [Compound 176, (S)-3-(1-hydroxypropan-2-yl)-8-(pyrrolidin-1-yl)-6-(6-(trifluoromethyl)pyridin-3-yl)pyrido[3,4-d]pyrimidin-4(3H)-one] | < 100 nM
7 | C[C@@H](CO)n1cnc2c(-c3cccnc3)nc(-c3cnnn3C)cc2c1=O [Compound 184, (S)-3-(1-hydroxypropan-2-yl)-6-(1-methyl-1H-1,2,3-triazol-5-yl)-8-(pyridin-3-yl)pyrido[3,4-d]pyrimidin-4(3H)-one] | > 500 nM
8 | COC(=O)c1ccc(-c2cc3c(=O)n([C@@H](C)CO)cnc3c(-c3cccnc3)n2)cn1 [Compound 52] | > 500 nM
9 | C[C@@H](CO)n1cnc2c(-c3cccnc3)nc(N3CCCCC3)cc2c1=O [Compound 100] | > 500 nM
10 | CC(C)(O)Cn1cnc2c(-c3cn[nH]c3)nc(-c3ccc(C(F)(F)F)cn3)cc2c1=O [Compound 159, 3-(2-hydroxy-2-methylpropyl)-8-(1H-pyrazol-4-yl)-6-(5-(trifluoromethyl)pyridin-2-yl)pyrido[3,4-d]pyrimidin-4(3H)-one] | < 100 nM
11 | O=c1c2cc(-c3ccc(C(F)(F)F)nc3)nc(-c3cccnc3)c2ncn1-c1ccccc1 [Compound 133, 3-phenyl-8-(pyridin-3-yl)-6-(6-(trifluoromethyl)pyridin-3-yl)pyrido[3,4-d]pyrimidin-4(3H)-one] | < 100 nM
12 | O=c1c2cc(-c3ccc(Cl)cc3)nc(-c3cccnc3)c2ncn1C1COCC1O (racemic) [Compound 29] | < 100 nM
13 | C[C@@H](CO)n1cnc2c(-c3cnn(C)c3)nc(-c3cccnc3)cc2c1=O [Compound 76] | 100 to 500 nM
14 | Cc1ncccc1-c1nc(-c2ccc(C(F)(F)F)nc2)cc2c(=O)n([C@@H](C)CO)cnc12 [Compound 63] | 100 to 500 nM
15 | CC(C)(O)Cn1cnc2c(N3CCCCC3)nc(-c3ccc(C(F)(F)F)nc3)cc2c1=O [Compound 179, 3-(2-hydroxy-2-methylpropyl)-8-(piperidin-1-yl)-6-(6-(trifluoromethyl)pyridin-3-yl)pyrido[3,4-d]pyrimidin-4(3H)-one] | < 100 nM
16 | O=c1c2cc(-c3ccc(Cl)cc3)nc(-c3cccc(F)c3)c2ncn1C[C@H](O)C(F)(F)F (stereo in doubt) [Compound 41] | < 100 nM

Row | SMILES | IC50
17 | C[C@@H](C(=O)N(C)C)n1cnc2c(-c3cccnc3)nc(-c3ccc(C(F)(F)F)nc3)cc2c1=O [Compound 157, (S)—N,N-dimethyl-2-(4-oxo-8-(pyridin-3-yl)-6-(6-(trifluoromethyl)pyridin-3-yl)pyrido[3,4-d]pyrimidin-3(4H)-yl)propenamide] | < 100 nM
18 | O=c1c2cc(-c3ccc(OC(F)(F)F)cc3)nc(-c3cccnc3)c2ncn1CC(O)C(F)(F)F (stereo not shown) [Compound 14] | < 100 nM
19 | CC(C)[C@@H](CO)n1cnc2c(-c3cc(F)cc(F)c3)nc(-c3cc(F)cc(F)c3)cc2c1=O [Compound 35] | < 100 nM
20 | CC(C)[C@@H](CO)n1cnc2c(-c3cccc(F)c3)nc(-c3ccc(Cl)cc3)cc2c1=O [Compound 90] | < 100 nM
21 | Cn1cc(-c2nc(-c3cnc(C(F)(F)F)s3)cc3c(=O)n([C@H]4COC[C@@H]4O)cnc23)cn1 [Compound 171, 3-((3S,4R)-4-hydroxytetrahydrofuran-3-yl)-8-(1-methyl-1H-pyrazol-4-yl)-6-(2-(trifluoromethyl)thiazol-5-yl)pyrido[3,4-d]pyrimidin-4(3H)-one] | < 100 nM
22 | O=c1c2cc(-c3ccc(C(F)(F)F)nc3)nc(-c3cccnc3)c2ncn1C1CCS(=O)(=O)C1 (stereo not shown) [Compound 106, 3-(1,1-dioxidotetrahydrothiophen-3-yl)-8-(pyridin-3-yl)-6-(6-(trifluoromethyl)pyridin-3-yl)pyrido[3,4-d]pyrimidin-4(3H)-one] | < 100 nM
23 | C[C@@H](CO)n1cnc2c(-c3ccc(=O)n(C)c3)nc(-c3ccc(Cl)cc3)cc2c1=O [Compound 73] | > 500 nM
24 | C[C@@H](CO)n1cnc2c(-c3cccnc3)nc(-c3cnsc3)cc2c1=O [Compound 53] | 100 to 500 nM
25 | C[C@@H](CO)n1cnc2c(-c3cccnc3)nc(C3=CCCCC3)cc2c1=O [Compound 77, (S)-6-(Cyclohex-1-en-1-yl)-3-(1-hydroxypropan-2-yl)-8-(pyridin-3-yl)pyrido[3,4-d]pyrimidin-4(3H)-one] | > 500 nM
26 | C[C@@H](C(=O)O)n1cnc2c(-c3cccnc3)nc(-c3ccc(C(F)(F)F)nc3)cc2c1=O [Compound 155, (S)-2-(4-oxo-8-(pyridin-3-yl)-6-(6-(trifluoromethyl)pyridin-3-yl)pyrido[3,4-d]pyrimidin-3(4H)-yl)propanoic acid] | > 500 nM
27 | C[C@@H](CO)n1cnc2c(-c3cccnc3)nc(C(=O)N(C)C)cc2c1=O [Compound 190, (S)-3-(1-hydroxypropan-2-yl)-N,N-dimethyl-4-oxo-8-(pyridin-3-yl)-3,4-dihydropyrido[3,4-d]pyrimidine-6-carboxamide] | > 500 nM
28 | Cc1ccc(-c2cc3c(=O)n([C@@H](C)CO)cnc3c(-c3cccnc3)n2)nc1 [Compound 186, (S)-3-(1-hydroxypropan-2-yl)-6-(5-methylpyridin-2-yl)-8-(pyridin-3-yl)pyrido[3,4-d]pyrimidin-4(3H)-one] | < 100 nM
29 | O=c1c2cc(-c3ccc(C4CC4)nc3)nc(-c3cccnc3)c2ncn1C[C@@H](O)C(F)(F)F [Compound 121, (R)-6-(6-cyclopropylpyridin-3-yl)-8-(pyridin-3-yl)-3-(3,3,3-trifluoro-2-hydroxypropyl)pyrido[3,4-d]pyrimidin-4(3H)-one] | < 100 nM
30 | C[C@@H](CO)n1cnc2c(-n3cncn3)nc(-c3ccc(C(F)(F)F)nc3)cc2c1=O [Compound 164, (S)-3-(1-hydroxypropan-2-yl)-8-(1H-1,2,4-triazol-1-yl)-6-(6-(trifluoromethyl)pyridin-3-yl)pyrido[3,4-d]pyrimidin-4(3H)-one] | 100 to 500 nM
31 | Cc1ccncc1-c1nc(-c2ccc(C(F)(F)F)nc2)cc2c(=O)n([C@@H](C)CO)cnc12 [Compound 64] | > 500 nM
